Data reported in patent US9938249B2, “Anti-amyloid compounds containing benzofurazan” (Treventis Corporation, priority 2014, dated 2018).

Target: Terminally biotinylated beta-amyloid (Aβ42) (Homo sapiens, UniProt P05067)
Assay: Aβ42 biotinylated (biotin-AB) oligomerization assay, NeutrAvidin capture ELISA
Type: biochemical
Conditions: approximate value; 1 hr oligomerization at room temperature; read-out: IC50 Aβ 42-bio
Experimental: Aβ42 Biotinylated Assay Terminally biotinylated beta-amyloid (biotin-AB) was dissolved in HFIP at the concentration of 1 mg/ml and aliquoted to 50 μl/tube in 0.65 ml colored microfuge tubes (Fisher 02-681-248). The aliquots were diluted immediately by adding 450 μl of HFIP to 0.1 mg/ml. Approximately 46 ul (containing approximately 4.6 ug of biotin-AB) were taken from a tube, 100 ul of HFIP added, vortexed, and dried to a thin film under an N2 stream. 100 μl of trifluoroacetic acid (TFA) was added and vortexed. After 10 minute incubation at room temperature in a hood, resulting in disaggregation of seeds, the sample was vortexed again and dried again to a thin film under an N2 stream. 100 μl of HFIP was added, mixed, and the biotin-AB sample was dried for a third time under an N2 stream to remove residual TFA. The treated biotin-AB was dissolved in DMSO to a final peptide concentration of […] (SOX). An ELISA “capture” plate (Costar 9018) was coated with 50 μl of 1 μg/ml NeutrAvidin™ (NA) in 10 mM sodium phosphate buffer, pH 7.5. (NeutrAvidin can be prepared as 1 mg/ml (1000×) in milliQ water/10% glycerol and stored at −80° C. before use.) The plate was sealed plate with adhesive film and stored at 4° C. overnight, then blocked for 2 hours (unsealed) at room temperature with 200 μl/well OFB+0.1% v/v Tween 20. The “capture” plate was allowed to come to room temperature. Several dilutions of test compound were prepared with 100% DMSO, according to the desired concentration to be tested. 2.5 μl of diluted test compound was pipetted into the bottom of each well of a 96-well “dilution” polypropylene plate (Costar 3365), to which was added 250 ul of Oligomer Formation Buffer (OFB: 20 mM sodium phosphate, pH 7.5-150 mM NaCl). To begin oligomerization, 2 μl/well of the biotin-AB was added to the bottom of each well of a 96-well “reaction” polypropylene plate (Costar 3365) and 100 ul of each well of the “dilution” plate was transferred to the “reaction” plate (final concentration of DMSO being up to 1%). The reaction plate was sealed and incubated for 1 hr at room temperature without shaking. The reaction was then stopped by the addition of 50 ul of 0.3% Tween 20 in water. The “capture” plate blocking solution was removed, and 50 ul of each well of the “reaction” plate was transferred to each well of the “capture” plate. The “capture” plate was sealed and incubated for 2 hours at room temperature with shaking at 150 rpm. The “capture” plate was then washed on a plate washer (3×) with 200 ul/well TBST (20 mM Tris-HCL, pH 7.5/150 mM NaCl/0.1% Tween 20). 50 ul of Streptavidin-horseradish […] (1:20,000 dilution) in OFB+0.1% Tween 20 was added to each well, the “capture” plate was sealed and incubated for 1 hr with shaking at 150 rpm. As before, the plate was washed, then 100 ul of TMB/H2O2 substrate solution was added to each well. After 5-10 minutes, 100 ul of 1% v/v sulfuric acid was added and the absorbance of each well was read at 450 nm using a standard plate reader. Data is summarized in the table below; numbers given in parenthesis for the Aβ 40 Thioflavin T assays are the values in that particular experiment for compound ID 1027, given as the first entry in this table for structural comparison. “IC50 Aβ42-bio” column refers to the approximate value of the Aβ42 biotinylated assay IC50 in micromoles/L.

Chain of Terminally biotinylated beta-amyloid (Aβ42) (P05067 672-713, species assumed): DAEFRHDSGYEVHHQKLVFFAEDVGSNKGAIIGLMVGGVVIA

Structure (SMILES) | IC50 [µM]
OC(c1cncc(-c2cc(N3CC(CN4CCCC4)C3)c3nonc3c2)c1)C(F)(F)F (centres unmarked) [compound 1544] | 3.9
OC(c1ccc(-c2cc(N3CC(CN4CCCC4)C3)c3nonc3c2)nc1)C(F)(F)F (centres unmarked) [compound 1545] | 8.4
OC(c1cnc(-c2cc(N3CC(CN4CCCC4)C3)c3nonc3c2)s1)C(F)(F)F (centres unmarked) [compound 1546] | 8.4
Fc1ccc(-c2cc(N3CC(CN4CCCC4)C3)c3nonc3c2)cc1 [compound 1547] | 12
NC(=O)c1cc(N2CC(CN3CCCC3)C2)c2nonc2c1 [compound 1548] | 25.3
CC(c1cc(N2CC(CN3CCCC3)C2)c2nonc2c1)N(C1CC1)S(C)(=O)=O (centres unmarked) [compound 1549] | 5.5
CC(=O)N(C1CC1)C(C)c1cc(N2CC(CN3CCCC3)C2)c2nonc2c1 (centres unmarked) [compound 1550] | 5.3
CC(NC1CC1)c1cc(N2CC(CN3CCCC3)C2)c2nonc2c1 (centres unmarked) [compound 1551] | 6.8
O=C(c1cc(N2CC(CN3CCCC3)C2)c2nonc2c1)N1CCCCC1 [compound 1552] | 5.7
OC(CCc1cc(N2CC(CN3CCCC3)C2)c2nonc2c1)C(F)(F)F (centres unmarked) [compound 1553] | 12.1
CS(=O)(=O)N1CCCCC1c1cc(N2CC(CN3CCCC3)C2)c2nonc2c1 (centres unmarked) [compound 1554] | 8.3
CC(=O)N1CCCCC1c1cc(N2CC(CN3CCCC3)C2)c2nonc2c1 (centres unmarked) [compound 1555] | 5
COCCN1CCCCC1c1cc(N2CC(CN3CCCC3)C2)c2nonc2c1 (centres unmarked) [compound 1556] | 6.6
CN1CCCCC1c1cc(N2CC(CN3CCCC3)C2)c2nonc2c1 (centres unmarked) [compound 1557] | 18.7
Cc1cc(C)c(-c2cc(N3CC(CN4CCCC4)C3)c3nonc3c2)c(C)c1 [compound 1558] | 5.9
Cc1ccc(C)c(-c2cc(N3CC(CN4CCCC4)C3)c3nonc3c2)c1 [compound 1559] | 7.6
c1csc(-c2cc(N3CC(CN4CCCC4)C3)c3nonc3c2)n1 [compound 1560] | 6.7
c1nc(-c2cc(N3CC(CN4CCCC4)C3)c3nonc3c2)cs1 [compound 1561] | 6.9
OC(c1ccc(-c2cc(N3CC(CN4CCOCC4)C3)c3nonc3c2)s1)C(F)(F)F (centres unmarked) [compound 1562, 2,2,2-trifluoro-1-(5-(7-(3-(morpholinomethyl)azetidin-1-yl)benzo[c][1,2,5]oxadiazol-5-yl)thiophen-2-yl)ethan-1-ol] | 2.7
OC(c1cccnc1-c1cc(N2CC(CN3CCOCC3)C2)c2nonc2c1)C(F)(F)F (centres unmarked) [compound 1563, 2,2,2-trifluoro-1-(2-(7-(3-(morpholinomethyl)azetidin-1-yl)benzo[c][1,2,5]oxadiazol-5-yl)pyridin-3-yl)ethan-1-ol] | > 20
OC(c1cccnc1-c1cc(N2CC(CN3CCCC3)C2)c2nonc2c1)C(F)(F)F (centres unmarked) [compound 1564, 2,2,2-trifluoro-1-(2-(7-(3-(pyrrolidin-1-ylmethyl)azetidin-1-yl)benzo[c][1,2,5]oxadiazol-5-yl)pyridin-3-yl) ethan-1-ol] | 6
OCc1csc(-c2cc(N3CC(CN4CCOCC4)C3)c3nonc3c2)n1 [compound 1565] | > 20
OCc1nc(-c2cc(N3CC(CN4CCOCC4)C3)c3nonc3c2)cs1 [compound 1566] | > 20
OC(c1nc(-c2cc(N3CC(CN4CCCC4)C3)c3nonc3c2)cs1)C(F)(F)F (centres unmarked) [compound 1567] | 26.9
OC(c1cc(-c2cc(N3CC(CN4CCOCC4)C3)c3nonc3c2)cs1)C(F)(F)F (centres unmarked) [compound 1568, 2,2,2-trifluoro-1-(4-(7-(3-(morpholinomethyl)azetidin-1-yl)benzo[c][1,2,5]oxadiazol-5-yl)thiophen-2-yl) ethan-1-ol] | 5.5
OC(c1ncccc1-c1cc(N2CC(CN3CCOCC3)C2)c2nonc2c1)C(F)(F)F (centres unmarked) [compound 1569, 2,2,2-trifluoro-1-(3-(7-(3-(morpholinomethyl)azetidin-1-yl)benzo[c][1,2,5]oxadiazol-5-yl)pyridin-2-yl) ethan-1-ol] | 11.5
